Results as given in patent US10556879B2, “Retinoid compound, preparation method therefor, intermediates thereof and application thereof” (SHANGHAI INSTITUTE OF ORGANIC CHEMISTRY, CHINESE ACADEMY OF …, priority 2016, dated 2020).
Where two headings read alike, the source gives them in different places.

Experiments:
[1] = tested on: subcutaneous implantation tumor of B16-F1 melanoma; assay: Subcutaneous implantation model of B16-F1 melanoma in immunocompetent mice; assay type: in vivo, mice (C57BL/6)
Description: A subcutaneous implantation model of B16-F1 melanoma in immunocompetent mice (C57BL/6, female, 6-8 weeks) was established to study the inhibitory activity of compound WYC-103 on the tumor in situ. Firstly, B16-F1 cells were incubated within 3D fibrin gel (90-Pa in gel stiffness) that was immersed in culture medium for 5 days, and the desired tumor-repopulating cells were screened. Subsequently, the culture medium was respectively treated with collagenase and neutral protease II, and the tumor-repopulating cells of B16-F1 melanoma were released, then the obtained repopulating cells were transferred to a freshly prepared medium to be re-suspended and maintained at single-cell state.
Six immunocompetent mice were randomly divided into two groups which were respectively the treatment group and the DMSO negative control group. Mice were subcutaneously injected with 30,000 tumor-repopulating cells of melanoma to establish a subcutaneous implantation model of melanoma. Subsequently, Mice were administered via tail vein injection based on the body weight and the blood volume of the mice. From day 0, mice in the treatment group were administrated with WYC-103 once every 2 days at a blood concentration of 10 μM and fed normally, observing the survival of the mice. […] According to the statistical analysis, the tumor volume in the treatment group was only 50% of the control group (FIG. 12).
This experiment was repeated in order to further confirm the inhibitory activity of WYC-103 on subcutaneous implantation tumor of B16-F1 melanoma. In the present experiment, 18 immunocompetent mice (C57BL/6, female, 6-8 weeks) were randomly divided into three groups which were respectively the treatment group, the positive control group (BMS-453 was used as the positive drug) and the DMSO negative control group. Subsequently, Mice were administered via tail vein injection based on the body weight and the blood volume of the mice. From day 0, mice in the treatment group were administrated with WYC-103 once every 2 days at a blood concentration of 10 μM; mice in the positive control group were administered with BMS-453 (WYC-114) as the positive drug in the same route of administration; mice in the negative control group was administered with 0.1% DMSO in a same route of administration.

[2] = tested on: tumor-repopulating cells of B16-F1 melanoma; assay: Inhibitory activity on proliferation of tumor-repopulating cells (TRCs) of B16-F1 melanoma in 3D fibrin gel; assay type: cell-based; details: for IC50: colony tumor volume, read-out: IC50 of inhibition on TRCs of B16-F1 melanoma/μM
Description: B16-F1 Melanoma cells were incubated with 3D fibrin gel medium (90-Pa) for 5 days, and the desired tumor-repopulating cells of melanoma were screened (Nat. Mater. 2012, 11, 734). Subsequently, the culture medium was respectively treated with collagenase and neutral protease II, and the tumor-repopulating cells of B16-F1 melanoma were released, then the obtained repopulating cells were transferred to a freshly prepared medium to be resuspended and maintained at single-cell state. The tumor-repopulating cells of B16-F1 melanoma were inoculated in 3D fibrin gel medium (90-Pa) for 5 days, with 0.1% DMSO as the negative control group, Tazarotene and Bexarotene as the positive control drugs respectively, […] for 5 days. The colony tumor size was measured and calculated, and the inhibition rate of each drug on the tumor-repopulating cells of B16-F1 melanoma was calculated. The results of inhibitory activity of the compound of the present invention on the proliferation of tumor-repopulating cells of B16-F1 melanoma were shown in Table 2 below.

[3] = Mus musculus, B16-F1, 120 h, 10 μM, incubated 5 days, colony tumor size, read-out: Inhibition rate on TRCs of B16-F1 melanoma at a concentration of 10 μM (%)
[4] = Mus musculus, B16-F1, dose-response curve
[5] = Mus musculus, B16-F1, 10 μM (Table 3), read-out: Inhibition rate on TRCs of B16-F1 melanoma at a concentration of 10 μM/%

Row | SMILES | inhibition at 10 µM [2, 3] [%] | also measured
1 | CC1(C)CC=C(c2ccccc2)c2cc(/C=C/c3ccc(C(=O)O)cc3)ccc21 [BMS-453, reference compound] |  | body weight of the mice ([1]; mouse, in vivo): significantly reduced; dissection of peritoneal/abdominal cavity ([1]; mouse, in vivo): a large number of abnormal foamy structure appeared in the peritoneal cavity; toxic side effects ([1]; mouse, in vivo): a greater toxic side effect; mice died ([1]; repeated experiment, on the 20th day): all the mice in the positive control group died
2 | CCOC(=O)c1cnc(C#Cc2ccc3c(c2)C(C)(C)CC[S@+]3[O-])nc1 [WYC-209A, ethyl 2-((4,4-dimethyl-1S-oxothiochroman-6-yl)ethynyl)pyrimidin-5-carboxylate] |  | Inhibition rate on TRCs of B16-F1 melanoma at a concentration of 10 μM/% ([2]; 10 μM (Table 3)): 98.9%; Inhibition rate on TRCs of B16-F1 melanoma at a concentration of 10 μM (%) ([2]; 10 μM, incubated 5 days, colony tumor size): 98.9%; IC50 ([2]; dose-response curve): 0.15 µM
3 | CCOC(=O)c1ccc(C#Cc2ccc3c(c2)C(C)(C)CCS3)c([N+](=O)[O-])c1 [WYC-308, ethyl 3-nitro-4-((4,4-dimethylthiochroman-6-yl)ethynyl)benzoate] | 71.9 | 
4 | C=C(c1ccc(C(=O)O)cc1)c1cc2c(cc1C)C(C)(C)CCC2(C)C [Bexarotene, reference compound] | 63.3 | 
5 | COC(=O)c1ccc(C#Cc2ccc3c(c2)C(C)(C)CCC3(C)C)c(O)c1 [WYC-332, methyl 3-hydroxy-4-((5,5,8,8-tetramethyl-5,6,7,8-tetrahydronaphth-2-yl)ethynyl)benzoate] | 55.9 | 
6 | COC(=O)c1ccc(C#Cc2ccc3c(c2)C(C)(C)CCS3)c(O)c1 [WYC-107, methyl 4-((4,4-dimethylthiochroman-6-yl)ethynyl)-3-hydroxybenzoate] | 75 | IC50 [2, 4]: 2.12 µM; inhibition at 10 µM [2, 5]: 75%
7 | CC1(C)CCSc2ccc(C#Cc3ccc(C(=O)O)c(Cl)c3)cc21 [WYC-327, 2-chloro-4-((4,4-dimethylthiochroman-6-yl)ethynyl)benzoic Acid] | 75.7 | 
8 | CCOC(=O)c1cnc(C#Cc2ccc3c(c2)C(C)(C)CC[S+]3[O-])cn1 (stereo not drawn) [WYC-324, ethyl 5-((4,4-dimethyl-1-oxothiochroman-6-yl)ethynyl)pyrazin-2-carboxylate] | 85.1 | 
9 | CC1(C)CCSc2ccc(C#Cc3ccc(C(=O)O)c(F)c3F)cc21 [WYC-314, 2,3-difluoro-4((4,4-dimethylthiochroman-6-yl)ethynyl)benzoic Acid] | 70.1 | 
10 | CCOC(=O)c1ccc(C#Cc2ccc3c(c2)C(C)(C)CCS3)cc1NC(C)=O [WYC-217, ethyl 2-acetamido-4-((4,4-dimethylthiochroman-6-yl)ethynyl)benzoate] | 90.3 | 
11 | COC(=O)c1ccc(C#Cc2ccc3c(c2)C(C)(C)CCS3)c(NC(C)=O)c1 [WYC-316, methyl 3-acetamido-4-((4,4-dimethylthiochroman-6-yl)ethynyl)benzoate] | 76.2 | 
12 | CCOC(=O)c1ncc(C#Cc2ccc3c(c2)C(C)(C)CC[S+]3[O-])cn1 (stereo not drawn) [WYC-208, ethyl 5-((4,4-dimethyl-1-oxothiochroman-6-yl)ethynyl)pyrimidin-2-carboxylate] | 27.7 | 
13 | CCOC(=O)c1ccc(C#Cc2ccc3c(c2)C(C)(C)CCS3)c(F)c1F [WYC-313, ethyl 2,3-difluoro-4((4,4-dimethylthiochroman-6-yl)ethynyl)benzoate] | 62.2 | 
14 | CC1(C)CCSc2ccc(C#Cc3cnc(C(=O)O)cn3)cc21 [WYC-323, 5-((4,4-dimethylthiochroman-6-yl)ethynyl)pyrazin-2-carboxylic Acid] | 76 | 
15 | CC1(C)CCSc2ccc(C#Cc3ccc(C(=O)O)c(N)c3)cc21 [WYC-212, 2-amino-4-((4,4-dimethylthiochroman-6-yl)ethynyl)benzoic Acid] | 93.2 | IC50 [2, 4]: 2.28 µM; inhibition at 10 µM [2, 5]: 93.2%
16 | CC1(C)CCSc2ccc(C#Cc3ccc(C(=O)O)cc3F)cc21 [WYC-310, 3-fluoro-4((4,4-dimethylthiochroman-6-yl)ethynyl)benzoic Acid] | 76.8 | 
17 | CCOC(=O)c1ccc(C#Cc2ccc3c(c2)C(c2ccccc2)=CCC3(C)C)cc1O [WYC-302, ethyl 4-((5,5-dimethyl-8-phenyl-5,6-dihydronaphth-2-yl)ethynyl)-2-hydroxybenzoate] | 21.9 | 
18 | CC1(C)CCSc2ccc(C#Cc3ncc(C(=O)O)cn3)cc21 [WYC-206, 2-((4,4-dimethylthiochroman-6-yl)ethynyl)pyrimidin-5-carboxylic acid] | 77.2 | 
19 | CC1(C)CCSc2ccc(C#Cc3ccc(C(=O)O)c(F)c3)cc21 [WYC-304, 2-fluoro-4-((4,4-dimethylthiochroman-6-yl)ethynyl)benzoic Acid] | 75.8 | 
20 | CC1(C)CC=C(c2ccccc2)c2cc(C#Cc3ccc(C(=O)O)c(F)c3)ccc21 [WYC-306, 4-((5,5-dimethyl-8-phenyl-5,6-dihydronaphth-2-yl)ethynyl)-2-fluorobenzic Acid] | 15.2 | 
21 | CC1(C)CCC(C)(C)c2cc(C#Cc3cnc(C#N)nc3)ccc21 [WYC-329, 2-cyano-5-((5,5,8,8-tetramethyl-5,6,7,8-tetrahydronaphth-2-yl)ethynyl)pyrimidine] | 94.5 | IC50 [2, 4]: 0.5 µM; inhibition at 10 µM [2, 5]: 94.5%
22 | CC1(C)CC[S+]([O-])c2ccc(C#Cc3ccc(C(=O)O)c(N)c3)cc21 (stereo not drawn) [WYC-214, 2-amino-4-((4,4-dimethyl-1-oxothiochroman-6-yl)ethynyl)benzoic Acid] | 51.6 | 
23 | CC1(C)CCSc2ccc(C#Cc3ccc(C(=O)O)cc3[N+](=O)[O-])cc21 [WYC-309, 3-nitro-4-((4,4-dimethylthiochroman-6-yl)ethynyl)benzoic Acid] | 56.8 | 
24 | COC(=O)c1ncc(C#Cc2ccc3c(c2)C(C)(C)CCC3(C)C)cn1 [WYC-338, methyl 5-((5,5,8,8-tetramethyl-5,6,7,8-tetrahydronaphth-2-yl)ethynyl)pyrimidin-2-carboxylate] | 69 | 
25 | CCOC(=O)c1ccc(C#Cc2ccc3c(c2)C(C)(C)CC[S+]3[O-])c(F)c1F (stereo not drawn) [WYC-315, ethyl 2,3-difluoro-4-((4,4-dimethyl-1-oxothiochroman-6-yl)ethynyl)benzoate] | 70.1 | 
